tested on: H2171 cells; experiment: Cell viability assay (ATPlite), H2171; type: cell-based, human; details: Homo sapiens, NCI-H2171, 72 h, cell viability, three days, ATPlite; NA: inactive under assay conditions
Procedure: This assay was used for the H2171 and MM1S cell data shown in Table 2, and for the Jurkat (an immortalized line of human T lymphocyte cells), Ly1 (OCI-Ly1 human non-Hodgkin lymphoma cell line), Ly4 (OCI-Ly4 human non-Hodgkin lymphoma cell line), H2172 (NCI-H2172 human non-small cell lung cancer cell line), and CA-46 (a human Burkitt's lymphoma cell line) cell data shown in Table 3 and FIG. 12. Cells were counted and adjusted to 60,000 cells/mL. Using a Biotek EL406, 50 μL of cells are media were distributed into 384 well white plates from Thermo. Immediately after plating, compound in DMSO was distributed to plates. For large plate sets, cells were returned to 37° C. incubator while not in use.
Compounds were added to plates using a 100 nL 384 well pin transfer manifold on a Janus workstation. Stocks were arrayed in 10 point quadruplicate dose response in DMSO stock in 384 well Greiner compound plates. After addition of compound, plates were incubated for three days in a 37° C. incubator.
Cell viability was read out using ATPlite from Perkin Elmer. Plates were removed from the incubator and brought to room temperature prior to use. Lyophilized powder was resuspended in lysis buffer and diluted 1:2 with DI water. 25 μL of this solution was added to each well using the Biotek liquid handler. Plates were sealed with adherent aluminum seals prior to vortexing and spinning down at 1000 g for 1 minute. Plates were incubated for 15 minutes at room temperature before signal was read on an Envision Plate Reader.

| Structure (SMILES) | EC50 [µM] |
| --- | --- |
| COc1ncc(/C=N/NC(=O)c2ccc(C(=O)O)c(-n3c(C)ccc3C)c2)c(OC)n1 [Compound 100] | 266 |
| COc1ccc(/C=N/NC(=O)c2ccc(C(=O)O)c(-n3c(C)ccc3C)c2)c(OC)c1 [Compound 85] | 97.3 |
| Cc1ccc(C)n1-c1cc(C(=O)N/N=C/c2cccc3ncccc23)ccc1C(=O)O [Compound 106] | 144 |
| CC(=O)OCOC(=O)c1ccc(C(=O)N/N=C/c2c[nH]cn2)cc1-n1c(C)ccc1C [Compound 108] | 0.556 |

biological target: c-Myc/Max/Ebox DNA (Homo sapiens, UniProt P01106); experiment: c-Myc/Max/Ebox DNA AlphaScreen assay; type: binding; design: An exemplary assay uses full-length human c-Myc and Max proteins; his6 (cleaved yes); made in house; details: c-Myc/Max/Ebox DNA AlphaScreen; NA: inactive under assay conditions; read-out: Biochemical IC50
Sequence (P01106 16-454): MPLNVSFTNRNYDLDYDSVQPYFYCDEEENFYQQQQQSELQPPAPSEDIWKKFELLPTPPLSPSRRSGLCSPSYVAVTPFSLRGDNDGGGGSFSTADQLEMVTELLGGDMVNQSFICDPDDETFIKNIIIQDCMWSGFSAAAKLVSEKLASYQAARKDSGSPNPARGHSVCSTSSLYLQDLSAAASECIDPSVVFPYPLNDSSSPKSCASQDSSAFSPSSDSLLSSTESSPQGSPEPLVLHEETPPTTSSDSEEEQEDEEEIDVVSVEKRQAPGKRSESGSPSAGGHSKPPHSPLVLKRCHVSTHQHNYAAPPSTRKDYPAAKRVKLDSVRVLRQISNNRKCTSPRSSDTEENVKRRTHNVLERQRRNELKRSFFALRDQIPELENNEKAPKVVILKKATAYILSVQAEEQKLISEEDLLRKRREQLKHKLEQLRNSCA
Procedure: This protocol was used to generate the biochemical data in Table 2 and FIG. 11. The primary AlphaScreen assay is amenable to 384-well and 1536-well plate formats for HTS. Human his6-c-Myc and his6-Max were used with biotinylated DNA containing a single Ebox sequence (biotin[…]) purchased from MWG Operon. Free c-Myc was generated from his6-c-Myc through thrombin cleavage of the his6 tag. For 384-well plate assays, 10 μL of a 2× solution of free c-Myc (25 nM final), Ni++-coated Acceptor Bead (25 μg/ml final), and biotinylated Ebox oligo (10 nM final) were added to 384-well plates with a Biotek EL406 liquid handler. 100 nL of compounds from stock plates were added by pin transfer using a Janus Workstation (PerkinElmer), allowing the compounds to interact with c-Myc prior to c-Myc binding with Max. In the current assay, DMSO was not allowed to exceed 2% v/v of the assay. 10 μl of 2× master mix containing streptavidin-coated donor beads (25 μg/ml final) and his6-Max (1.25 nM final) were added. AlphaScreen measurements were performed on an Envision 2104 (PerkinElmer) utilizing the manufacturer's protocol. The assay can also be performed in 1536-plate format with 8 μL total volume using two 4 μL additions (instead of […] and 10 μL respectively).
Assays are performed with minor modifications from the manufacturer's protocol (PerkinElmer). Both master mixes were made in room temperature assay buffer (50 mM HEPES, 150 mM NaCl, 0.2% w/v BSA, 0.02% w/v Tween20, 40 μg/ml glycogen, 500 μM DTT, pH 8.0, DTT and glycogen added fresh). Alpha beads were added to respective master solutions and wrapped in foil. All subsequent steps were performed in low light conditions. Solution 1: 2× solution of components with final concentrations of cMyc (25 nM), Ni-coated Acceptor Bead (25 μg/ml), and biotinylated Ebox oligo (10 nM). Solution 2: 2× solution of streptavidin-coated donor beads (25 μg/ml final) and his6-Max (1.25 nM final). […] Solution 1 were added to 384-well plate (AlphaPlate-384, PerkinElmer) with Biotek EL406 liquid handler and the plates were centrifuged at 1000 rpm for 1 minute. 100 nL of compounds from stock plates were added by pin transfer using a Janus Workstation. 10 μL Solution 2 were added with the liquid handler. Plates were sealed with foil to block light exposure and prevent evaporation. Plates were centrifuged at 1000 rpm for 1 minute followed by 2 hour incubation. AlphaScreen measurements were performed on an Envision 2104 utilizing the manufacturer's protocol. Excitation was at 680 nm for donor bead release of singlet oxygen and emission was read with a bandpass filter from 520-620 nm. Glycogen: Roche Diagnostics #10901393001. Plate 1536: Perkin Elmer, 6004350. Plate 384: Perkin Elmer, 6005350. Nickel-His Alpha Beads: 6760619R.

| Structure (SMILES) | IC50 [µM] |
| --- | --- |
| Cc1cc(/C=C(/C#N)C(=O)NCCc2c[nH]c3ccccc23)c(C)n1-c1ccccc1C(=O)O [Compound 58] | 135 |
| COc1ncc(/C=N/NC(=O)c2ccc(C(=O)O)c(-n3c(C)ccc3C)c2)c(OC)n1 [Compound 100] | 7.67 |
| Cc1c(-c2ccccc2)c2c(n1-c1ccc(C(=O)O)cc1)CCCC2 [Compound 49] | 42 |
| Cc1ccc(C(=O)O)cc1-n1c(C)cc(CN2C[C@H](N(C)C)C[C@H]2CO)c1C [Compound 45] | 115 |
| Cc1ccc(C)n1-c1cc(C(=O)N/N=C/c2ccc(-c3cncnc3)cc2)ccc1C(=O)O [Compound 102] | 26.5 |
| Cc1ccc(C)n1-c1cc(C(=O)N/N=C/c2ccccc2)ccc1C(=O)O [Compound 121] | 7.69 |
| Cc1ccccc1N1C(=O)NC(=O)/C(=C\c2cc(C)n(-c3ccccc3C(=O)O)c2C)C1=O [Compound 53] | 2510 |
| COc1ccc(/C=N/NC(=O)c2ccc(C(=O)O)c(-n3c(C)ccc3C)c2)c(OC)c1 [Compound 85] | 37.9 |
| Cc1ccc(C)n1-c1cc(C(=O)N/N=C/c2cccc3ncccc23)ccc1C(=O)O [Compound 106] | 15.1 |
| Cc1ccc(C)n1-c1cc(C(=O)N/N=C\c2cc(F)c(C(=O)O)c(F)c2)ccc1C(=O)O [Compound 118] | 0.48 |
| Cc1ccc(C)n1-c1ccc(C(=O)O)c(O)c1 [Compound 5] | 4.29 |
| Cc1ccc(C)n1-c1cc(C(=O)N/N=C/c2cccnc2)ccc1C(=O)O [Compound 86] | 5.97 |
| Cc1ccc(C)n1-c1cc(C(=O)N/N=C/c2ccc(O)cc2)ccc1C(=O)O [Compound 83] | 6.85 |
| CC1(C)CC(=O)c2cc(CC(=O)O)n(-c3ccc(C(=O)O)cc3)c2C1 [Compound 51] | 523 |
| Cc1ccc(C)n1-c1cc(C(=O)N/N=C/c2ccc3nccnc3c2)ccc1C(=O)O [Compound 104] | 7.11 |
| Cc1ccc(C)n1-c1cc(C(=O)N/N=C\c2ccc(O)c(F)c2)ccc1C(=O)O [Compound 117] | 6.52 |
| Cc1ccc(C)n1-c1cc(C(=O)N/N=C/c2cc(C(=O)O)ccc2F)ccc1C(=O)O [Compound 125] | 1.25 |
| Cc1cc2c(n1-c1ccc(C(=O)O)cc1)CC(C)(C)CC2=O [Compound 50] | 446 |
| Cc1cc(/C=C(/C#N)c2nc3ccccc3[nH]2)c(C)n1-c1ccccc1C(=O)O [Compound 59] | 125 |
| Cc1cc(/C=C2\C(=O)NC(=O)N(c3ccc(F)cc3)C2=O)c(C)n1-c1ccccc1C(=O)O [Compound 55] | 58.5 |

| Structure (SMILES) | IC50 [µM] |
| --- | --- |
| CCCC(=O)Nc1ccc(N2CCCCCC2)cc1C(=O)O [Compound 31] | 172 |
| Cc1ccc(C)n1-c1cc(C(=O)O)ccc1O [Compound 4] | 34.1 |
| Cc1ccc(C)n1-c1ccc(Br)cc1C(=O)O [Compound 36] | 64.7 |
| Cc1ccc(C)n1-c1ccc(Cl)cc1C(=O)O [Compound 35] | 31.3 |
| Cc1ccc(C)n1-c1cc(C(=O)N2CCc3ccc(C(=O)O)cc3C2)ccc1C(=O)O [Compound 165] | 0.343 |
| Cc1cc2c(n1-c1ccc(C(=O)O)cc1)CCCCC2 [Compound 48] | 51.8 |
| Cc1ccc(-c2ccccc2)n1-c1ccccc1C(=O)O [Compound 41] | 324 |
| Cc1ccc(C)n1-c1cc(C(=O)N/N=C/c2ccc(C(=O)O)o2)ccc1C(=O)O [Compound 124] | 0.708 |
| Cc1cc(/C=N/NC(N)=S)c(C)n1-c1ccccc1C(=O)O [Compound 54] | 16.3 |
| Cc1cc(/C=C2\SC(=O)N(C)C2=O)c(C)n1-c1ccccc1C(=O)O [Compound 56] | 103 |
| Cc1cccc(C)c1-c1ccccc1C(=O)O [Compound 60] | 89.1 |
| CN1CCN(c2ccccc2C(=O)O)CC1 [Compound 156] | 346 |
| Cc1cc(/C=C2\C(=O)NC(=O)N(C)C2=O)c(C)n1-c1cccc(C(=O)O)c1 [Compound 46] | 76.8 |
| CC(=O)Nc1ccc(-n2c(C)ccc2C)c(C(=O)O)c1 [Compound 40] | 34.4 |
| Cc1ccc(C)n1-c1ccc(C(=O)O)cc1 [Compound 3] | 287 |
| O=C(O)c1cc(-n2cccc2)ccc1N1CCOCC1 [Compound 30] | 273 |
| CC(=O)Nc1ccc(N2CCCC(C)C2)c(C(=O)O)c1 (stereo not shown) [Compound 34] | 191 |
| Cc1cc2c(n1-c1cccc(C(=O)O)c1)CC(C)(C)CC2=O [Compound 42] | 697 |
| CN(C)c1ccc(/N=N/c2ccccc2C(=O)O)cc1 [Compound 154] | 43.4 |
| Cc1ccc(C)n1-c1cccc(C(=O)O)c1 [Compound 2] | 74.5 |

| Structure (SMILES) | IC50 [µM] |
| --- | --- |
| Cc1ccc(C(=O)O)cc1-n1c(C)cc(CN2CCC(N)(C(=O)O)C2)c1C (stereo not shown) [Compound 44] | 194 |
| Cc1ccc(C)n1-c1cc(C(=O)N/N=C/c2cccc(C(=O)O)c2)ccc1C(=O)O [Compound 120] | 0.393 |
| Cc1ccc(C)n1-c1cc(C(=O)NCCc2ccc(O)c(O)c2)ccc1C(=O)O [Compound 73] | 33.4 |
| COc1cc(C(=O)O)c(-n2c(C)ccc2C)cc1OC [Compound 37] | 62.7 |
| O=C(O)c1ccccc1-n1c(-c2ccccc2)cc2c1CCCC2=O [Compound 29] | 252 |
| Cc1cc(/C=C2\SC(=O)N(C)C2=O)c(C)n1-c1ccccc1C(=O)O [Compound 57] | 92.2 |
| CC1(C)CC(=O)c2cc(CC(=O)O)n(-c3cccc(C(=O)O)c3)c2C1 [Compound 43] | 197 |
| Cc1ccc(C)n1-c1cc(C(=O)NNC(=O)c2cccc(C(=O)O)c2)ccc1C(=O)O [Compound 166] | 1.89 |
| CCCCC(=O)Nc1ccc(N2CCC(C)CC2)c(C(=O)O)c1 [Compound 32] | 881 |
| Cc1ccc(C)n1-c1cc(C(=O)N/N=C/c2ccc(S(=O)(=O)O)o2)ccc1C(=O)O [Compound 84] | 0.534 |
| Cc1cc(C(=O)N/N=C/c2ccccc2)c(C)n1-c1ccccc1C(=O)O [Compound 61] | 49.2 |
| COC(=O)c1ccc(-n2c(C)ccc2C)cc1O [Compound 18] | 1.54 |
| Cc1ccc(C)n1-c1cc(C(=O)N/N=C/c2c[nH]cn2)ccc1C(=O)O [Compound 78] | 1.75 |
| Cc1ccc(C)n1-c1cc(C(=O)N/N=C/c2c[nH]c3ccc(F)cc23)ccc1C(=O)O [Compound 95] | 23.3 |
| CC(=O)c1cc(C)n(-c2ccc(C(=O)O)cc2)c1C [Compound 47] | 166 |
| Cc1ccc(C)n1-c1cc(Cl)ccc1C(=O)O [Compound 38] | 63.7 |
| Cc1ccc(C)n1-c1cc(C(=O)N/N=C/c2cccc(B(O)O)c2)ccc1C(=O)O [Compound 82] | 2.95 |
| Cc1cc(/C=C(\C#N)C(=O)Nc2ccc(O)cc2)c(C)n1-c1ccccc1C(=O)O [Compound 52] | 36.2 |
| CC(=O)Nc1ccc(N2CCCCCC2)c(C(=O)O)c1 [Compound 33] | 171 |
| Cc1c2ccccc2c(C)n1-c1ccccc1C(=O)O [Compound 137] | 57.8 |

From patent US9567301B2, “Pyrrol-1-yl benzoic acid derivatives useful as myc inhibitors” (Whitehead Institute for Biomedical Research, priority 2012, dated 2017)
